Measurements reported in patent publication US20120093947A1, “METHOD OF TREATING REACTIVE AIRWAY DISEASE” (UNITED STATES DEPARTMENT OF VETERANS AFFAIRS, priority 2009, published 2012).
Read-outs that look alike come from different tables or passages of the source.

Tests used:
LPO = molecular target: T1, LPO (Bos taurus, UniProt P80025); experiment: EPR of MNP adducts with radicals from β2-agonists generated by LPO/H2O2; assay type: biochemical, bovine; conditions: pH 8.0
T1 construct: Lactoperoxidase (LPO) from bovine milk (EC 1.11.1.7); purchased Sigma-Aldrich Co. (St. Louis, Mo.); host or cells: bovine milk (natural source)
Procedure: (§1) Formation of free radicals from β2-agonists is studied in samples prepared in 100 mM phosphate buffer (pH 7.0 and 8.0)/DTPA (0.2 mM) (total volume 250 μL) containing MNP, MPO (or LPO) and the agonists. The reaction is initiated by the addition of H2O2 as the last component. In experiments in which H2O2 was generated using glucose (1 mM) and glucose oxidase (3.9 μg/mL), glucose oxidase is added as a last component. The sample is transferred to a flat aqueous EPR cell and recording is started 1 minute after initiation of the reaction. Typically, spectra of MNP adducts are recorded using microwave power 20 mW, modulation amplitude 0.1 mT, receiver gain 2×10^5, conversion time 40.96 ms, time constant 81.92 ms, and scan rate of 10 mT/41.92 s. EPR spectra constitute an average of 5 scans and represent results of typical experiments. Unless stated otherwise, direct EPR measurements (spin traps omitted) of free radicals derived from β2-agonists are performed using conditions similar to those for the detection of MNP adducts. EPR spectra are simulated using WINSIM software developed at NIEHS/NIH (RTP, NC).
(§2) The effect of methimazole and dapsone on the formation of free radicals from drugs is studied in phosphate buffers (pH 7.0 and 8.0) containing DTPA (0.2 mM) and MNP (10 mM in dimers). Oxidation is carried out by MPO (0.43 units/mL)/H2O2 (37 μM) and LPO (0.39 μM)/glucose (1 mM)/glucose oxidase (0.8 μg/mL). […]
(§3) Table 3, below, summarizes the effects of dapsone and methimazole on EPR spectra of MNP adducts with radicals from fenoterol and terbutaline generated by MPO/H2O2 and LPO/H2O2 systems at a pH of 8.0. Concentrations of MNP spin adducts were calculated as second integrals of the low-field component of the respective spectra and are expressed as % of control samples (no additives). Results equal the means±SE of at least two measurements.
(§4) . […] This is consistent with the known inhibitory action of both methimazole and dapsone on LPO activity and only methimazole on MPO activity. Thomas et al. (1994) J. Dent. Res. 73(2):544-55. Results obtained at pH 7.0 qualitatively agree with those at pH 8.0.

MPO [1] = molecular target: T2, MPO (Homo sapiens, UniProt P05164); experiment: EPR of MNP adducts with radicals from β2-agonists generated by MPO/H2O2; assay type: biochemical; set-up: Myeloperoxidase (MPO) from human leucocytes (lyophilized powder); purchased Axxora, LLC (San Diego, Calif.); host or cells: human leucocytes (natural source)
T2 sequence (P05164 279-745 limits assumed): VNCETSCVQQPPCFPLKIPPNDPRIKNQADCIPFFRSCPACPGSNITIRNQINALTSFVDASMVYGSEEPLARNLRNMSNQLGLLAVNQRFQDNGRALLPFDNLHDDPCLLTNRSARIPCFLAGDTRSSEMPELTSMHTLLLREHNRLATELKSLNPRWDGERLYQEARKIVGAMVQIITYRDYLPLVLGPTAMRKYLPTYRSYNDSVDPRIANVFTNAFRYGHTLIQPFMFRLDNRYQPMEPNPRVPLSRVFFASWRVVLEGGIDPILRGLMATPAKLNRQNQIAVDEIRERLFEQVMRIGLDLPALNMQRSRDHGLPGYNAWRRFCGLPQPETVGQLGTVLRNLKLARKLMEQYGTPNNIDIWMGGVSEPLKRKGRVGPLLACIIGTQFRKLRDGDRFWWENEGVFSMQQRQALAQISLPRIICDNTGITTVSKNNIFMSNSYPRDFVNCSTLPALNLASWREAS
T2 sequence (P05164 165-273 limits assumed): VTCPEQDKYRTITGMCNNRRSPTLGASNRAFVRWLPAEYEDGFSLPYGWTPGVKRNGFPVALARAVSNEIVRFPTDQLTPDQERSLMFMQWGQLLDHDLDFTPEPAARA
Procedure: as §1, §2, §3, §4

MPO [2] = molecular target: T2, MPO; experiment: Nitration of salbutamol by MPO/H2O2/NO2−, A410; assay type: biochemical; set-up: Myeloperoxidase (MPO) from human leucocytes (lyophilized powder); purchased Axxora, LLC (San Diego, Calif.); host or cells: human leucocytes (natural source); conditions: 50 μM salbutamol; for Nitrophenols, (%) MPO: 5.0 mM NaNO2, 5 mM H2O2, 0.2 U/mL MPO, pH 7.0, 30 min, ΔA410 versus control
Procedure: Spectrophotometric Measurements. Spectra are measured using an Agilent diode array spectrophotometer model 8453 (Agilent Technologies, Inc., Santa Clara, Calif.). Nitration of salbutamol is studied by measuring absorption spectra at designated time points following the start of the reaction. Samples are prepared in 100 mM phosphate buffers (pH 7.0). All buffers contained DTPA (100 μM) or are pretreated with Chelex-100 before use, and measurements are performed at ambient temperature of 20° C. Typically, the reaction is started by the addition of a small aliquot of H2O2 or the desired peroxidase. Time course measurements are carried out following changes in absorbance at 410 nm in 30 second intervals versus absorbance at 800 nm, where none of the compounds absorb.
We also examine the effect of methimazole on nitration catalyzed by MPO and EPO. 50 μM of salbutamol is reacted with 0.2 U/mL MPO, 5 mM NaNO2, and 2.1 mM H2O2 at pH buffer 7.0 in the presence of 0, 25, 50, and 100 μM methimazole (shown in FIG. 9, section B, traces a-d, respectively). In contrast to inhibition of nitration by LPO system, which was irreversible, inhibitory action of methimazole on MPO/H2O2/NO2^− is transitory.
The extent of nitration is expressed as a change in ΔA410 versus control (dapsone omitted) taken as 100% after 10, 30, and 60 minute reactions for LPO, MPO, and EPO nitrating systems, respectively. Results equal the means±SE of at least two measurements. In the LPO system, 100 μM of salbutamol, 3.4 mM of NaNO2, 4 mM of H2O2, and 65 nM of LPO is used. In the MPO system, 50 μM of salbutamol, 5.0 mM of NaNO2, 5 mM of H2O2, and 0.2 U/mL of MPO is used. In the EPO system, 50 μM of salbutamol, 5 mM of NaNO2, 2 mM of H2O2, and 0.075 U/mL of EPO is used. All reactions were carried out in pH 7.0 phosphate buffer containing DMSO (5% v/v). The term “nitrophenols” includes nitrosalbutamol (N-Sal) and salbutamol-derived nitrophenol (N—ArOH).

Row | Structure (SMILES) | Concentration of MNP spin adducts, Fenoterol, +LPO + H2O2, % of control (LPO; fenoterol 0.47 mM, inhibitor 0.86 mM, H2O2 from glucose 1 mM/glucose oxidase 0.8 μg/mL) | remaining activity at 860 µM (LPO; fenoterol 0.47 mM, inhibitor 0.86 mM, H2O2 from glucose 1 mM/glucose oxidase 0.8 μg/mL, read-out: Concentration of MNP spin adducts, Fenoterol, +LPO + H2O2, % of control) [%] | Concentration of MNP spin adducts, Terbutaline, +LPO + H2O2, % of control (LPO; terbutaline 0.47 mM, inhibitor 0.86 mM, H2O2 from glucose 1 mM/glucose oxidase 0.8 μg/mL) | remaining activity at 860 µM (LPO; terbutaline 0.47 mM, inhibitor 0.86 mM, H2O2 from glucose 1 mM/glucose oxidase 0.8 μg/mL, read-out: Concentration of MNP spin adducts, Terbutaline, +LPO + H2O2, % of control) [%] | Concentration of MNP spin adducts, Fenoterol, +MPO + H2O2, % of control (MPO [1]; fenoterol 0.47 mM, inhibitor 0.86 mM, reagent H2O2 37 μM, pH 8.0) | remaining activity at 860 µM (MPO [1]; fenoterol 0.47 mM, inhibitor 0.86 mM, reagent H2O2 37 μM, pH 8.0, read-out: Concentration of MNP spin adducts, Fenoterol, +MPO + H2O2, % of control) [%] | Concentration of MNP spin adducts, Terbutaline, +MPO + H2O2, % of control (MPO [1]; terbutaline 0.47 mM, inhibitor 0.86 mM, reagent H2O2 37 μM, pH 8.0) | remaining activity at 860 µM (MPO [1]; terbutaline 0.47 mM, inhibitor 0.86 mM, reagent H2O2 37 μM, pH 8.0, read-out: Concentration of MNP spin adducts, Terbutaline, +MPO + H2O2, % of control) [%] | Inhibitory action on nitration of salbutamol by MPO/H2O2/NO2− (MPO [2]; methimazole 25, 50, 100 μM, 0.2 U/mL MPO, 5 mM NaNO2, 2.1 mM H2O2, pH 7.0) | Concentration of MNP spin adducts, Fenoterol, +LPO + H2O2, % of control (LPO; fenoterol 0.047 mM, inhibitor 1 mM, reagent H2O2 37 μM) | remaining activity at 1000 µM (LPO; fenoterol 0.047 mM, inhibitor 1 mM, reagent H2O2 37 μM, read-out: Concentration of MNP spin adducts, Fenoterol, +LPO + H2O2, % of control) [%] | Concentration of MNP spin adducts, Terbutaline, +LPO + H2O2, % of control (LPO; terbutaline 0.047 mM, inhibitor 1 mM, reagent H2O2 37 μM) | remaining activity at 1000 µM (LPO; terbutaline 0.047 mM, inhibitor 1 mM, reagent H2O2 37 μM, read-out: Concentration of MNP spin adducts, Terbutaline, +LPO + H2O2, % of control) [%] | Effect on MPO activity (formation of radicals from fenoterol and terbutaline, MPO system) (MPO [1]; inhibitor 1 mM, MPO/H2O2) | Nitrophenols, (%) MPO (MPO [2]; dapsone 100 μM) [%] | Nitrophenols, (%) MPO (MPO [2]; dapsone 250 μM) [%] | Nitrophenols, (%) MPO (MPO [2]; dapsone 500 μM) [%]
1 | Cn1cc[nH]c1=S [Methimazole, 1-methyl-3H-imidazole-2-thione] | markedly inhibit | 26.9 ± 8.2 | markedly inhibit | 33.9 | inhibitory | 22.4 ± 0.6 | inhibitory | 33.5 ± 3.5 | transitory | – | – | – | – | – | – | – | –
2 | Nc1ccc(S(=O)(=O)c2ccc(N)cc2)cc1 [Dapsone, diamino-diphenyl sulfone] | – | – | – | – | – | – | – | – | – | markedly inhibit | 13.9 ± 0.6 | markedly inhibit | 54.6 ± 20 | only a minimal effect | 66.3 ± 0.6 | 56.0 ± 1.3 | 44.2 ± 3.0
